Columns and labels:
[1] = system: SN12C; test: Growth inhibition of human SN12C cells at 10 uM incubated for 48 hrs by sulforhodamine B assay relative to control; format: functional; conditions: read-out: GI
[2] = system: SK-MEL-2; test: Growth inhibition of human SK-MEL-2 cells at 10 uM incubated for 48 hrs by sulforhodamine B assay relative to control; format: functional; conditions: read-out: GI
[3] = system: Hs-578T; test: Growth inhibition of human Hs-578T cells at 10 uM incubated for 48 hrs by sulforhodamine B assay relative to control; format: functional; conditions: read-out: GI
[4] = system: SF-539; test: Growth inhibition of human SF-539 cells at 10 uM incubated for 48 hrs by sulforhodamine B assay relative to control; format: functional; conditions: read-out: GI
[5] = system: MDA-MB-468; test: Growth inhibition of human MDA-MB-468 cells at 10 uM incubated for 48 hrs by sulforhodamine B assay relative to control; format: functional; conditions: read-out: GI
[6] = system: OVCAR-8; test: Growth inhibition of human OVCAR-8 cells at 10 uM incubated for 48 hrs by sulforhodamine B assay relative to control; format: functional; conditions: read-out: GI
[7] = system: HOP-62; test: Growth inhibition of human HOP-62 cells at 10 uM incubated for 48 hrs by sulforhodamine B assay relative to control; format: functional; conditions: read-out: GI
[8] = system: U-251; test: Growth inhibition of human U-251 cells at 10 uM incubated for 48 hrs by sulforhodamine B assay relative to control; format: functional; conditions: read-out: GI
[9] = system: A498; test: Growth inhibition of human A498 cells at 10 uM incubated for 48 hrs by sulforhodamine B assay relative to control; format: functional; conditions: read-out: GI
[10] = system: PC-3; test: Growth inhibition of human PC-3 cells at 10 uM incubated for 48 hrs by sulforhodamine B assay relative to control; format: functional; conditions: read-out: GI
[11] = system: HL-60(TB); test: Growth inhibition of human HL-60(TB) cells at 10 uM incubated for 48 hrs by sulforhodamine B assay relative to control; format: functional; conditions: read-out: GI
[12] = system: UO-31; test: Growth inhibition of human UO-31 cells at 10 uM incubated for 48 hrs by sulforhodamine B assay relative to control; format: functional; conditions: read-out: GI
[13] = system: SR; test: Growth inhibition of human SR cells at 10 uM incubated for 48 hrs by sulforhodamine B assay relative to control; format: functional; conditions: read-out: GI
[14] = target: T1, Monoglyceride lipase (Homo sapiens, UniProt Q99685); test: Inhibition of human MAGL using 4-Nitrophenylacetate as substrate
T1 sequence (Q99685 whole entry): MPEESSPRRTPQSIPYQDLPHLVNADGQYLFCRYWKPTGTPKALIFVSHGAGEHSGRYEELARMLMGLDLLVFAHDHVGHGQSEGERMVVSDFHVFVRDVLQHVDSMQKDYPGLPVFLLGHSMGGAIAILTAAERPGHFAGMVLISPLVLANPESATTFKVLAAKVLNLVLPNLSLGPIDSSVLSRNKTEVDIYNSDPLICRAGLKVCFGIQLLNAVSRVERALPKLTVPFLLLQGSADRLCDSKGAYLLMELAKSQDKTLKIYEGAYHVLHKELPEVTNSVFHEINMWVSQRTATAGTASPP

[15] = system: SF-295; test: Growth inhibition of human SF-295 cells at 10 uM incubated for 48 hrs by sulforhodamine B assay relative to control; format: functional; conditions: read-out: GI
[16] = system: EKVX; test: Growth inhibition of human EKVX cells at 10 uM incubated for 48 hrs by sulforhodamine B assay relative to control; format: functional; conditions: read-out: GI
[17] = system: MOLT-4; test: Growth inhibition of human MOLT-4 cells at 10 uM incubated for 48 hrs by sulforhodamine B assay relative to control; format: functional; conditions: read-out: GI
[18] = system: Hs-578T; test: Growth inhibition of human Hs-578T cells incubated for 48 hrs by sulforhodamine B assay; format: functional
[19] = system: PC-3; test: Growth inhibition of human PC-3 cells incubated for 48 hrs by sulforhodamine B assay; format: functional
[20] = system: NCI-H522; test: Growth inhibition of human NCI-H522 cells incubated for 48 hrs by sulforhodamine B assay; format: functional
[21] = system: MCF7; test: Growth inhibition of human MCF7 cells incubated for 48 hrs by sulforhodamine B assay; format: functional
[22] = system: OVCAR-4; test: Growth inhibition of human OVCAR-4 cells incubated for 48 hrs by sulforhodamine B assay; format: functional
[23] = system: K562; test: Growth inhibition of human K562 cells incubated for 48 hrs by sulforhodamine B assay; format: functional
[24] = system: EKVX; test: Growth inhibition of human EKVX cells incubated for 48 hrs by sulforhodamine B assay; format: functional
[25] = system: OVCAR-8; test: Growth inhibition of human OVCAR-8 cells incubated for 48 hrs by sulforhodamine B assay; format: functional
[26] = system: OVCAR-3; test: Growth inhibition of human OVCAR-3 cells incubated for 48 hrs by sulforhodamine B assay; format: functional
[27] = system: SNB-19; test: Growth inhibition of human SNB-19 cells incubated for 48 hrs by sulforhodamine B assay; format: functional
[28] = system: SF-539; test: Growth inhibition of human SF-539 cells incubated for 48 hrs by sulforhodamine B assay; format: functional
[29] = system: A498; test: Growth inhibition of human A498 cells incubated for 48 hrs by sulforhodamine B assay; format: functional
[30] = system: SF-295; test: Growth inhibition of human SF-295 cells incubated for 48 hrs by sulforhodamine B assay; format: functional
[31] = system: CAKI-1; test: Growth inhibition of human CAKI-1 cells incubated for 48 hrs by sulforhodamine B assay; format: functional
[32] = system: HCT-15; test: Growth inhibition of human HCT-15 cells incubated for 48 hrs by sulforhodamine B assay; format: functional
[33] = system: SK-MEL-2; test: Growth inhibition of human SK-MEL-2 cells incubated for 48 hrs by sulforhodamine B assay; format: functional
[34] = system: NCI-H226; test: Growth inhibition of human NCI-H226 cells incubated for 48 hrs by sulforhodamine B assay; format: functional
[35] = system: COLO 205; test: Growth inhibition of human COLO 205 cells incubated for 48 hrs by sulforhodamine B assay; format: functional
[36] = system: MDA-MB-435; test: Growth inhibition of human MDA-MB-435 cells incubated for 48 hrs by sulforhodamine B assay; format: functional
[37] = read-out: LC50 (the source's name)

SMILES: O=C(CN(c1ccccc1)c1ccccc1)Nc1ccc(-c2nc3ccccc3s2)cc1
- inhibition of growth at 10 µM [1]: -3.04%
- inhibition of growth at 10 µM [2]: -0.42%
- inhibition of growth at 10 µM [3]: 14.3%
- inhibition of growth at 10 µM [4]: 4.21%
- inhibition of growth at 10 µM [5]: 61.3%
- inhibition of growth at 10 µM [6]: -0.82%
- inhibition of growth at 10 µM [7]: -5.28%
- inhibition of growth at 10 µM [8]: -5.92%
- inhibition of growth at 10 µM [9]: 6.91%
- inhibition of growth at 10 µM [10]: 2.35%
- inhibition of growth at 10 µM [11]: -1.45%
- inhibition of growth at 10 µM [12]: 3.62%
- inhibition of growth at 10 µM [13]: 2.68%
- IC50 [14]: > 100 µM
- inhibition of growth at 10 µM [15]: -3.15%
- inhibition of growth at 10 µM [16]: -9.19%
- inhibition of growth at 10 µM [17]: -4.25%

SMILES: O=C(Cn1c2ccccc2c2ccccc21)Nc1ccc(-c2nc3ccccc3s2)cc1
- inhibition of growth at 10 µM [1]: -1.32%
- inhibition of growth at 10 µM [2]: -0.88%
- inhibition of growth at 10 µM [3]: -14.2%
- inhibition of growth at 10 µM [4]: 4.12%
- inhibition of growth at 10 µM [5]: 83.4%
- inhibition of growth at 10 µM [6]: -2.86%
- inhibition of growth at 10 µM [7]: -0.99%
- inhibition of growth at 10 µM [8]: 6.01%
- inhibition of growth at 10 µM [9]: 9.51%
- inhibition of growth at 10 µM [10]: -4.16%
- inhibition of growth at 10 µM [11]: -3.61%
- inhibition of growth at 10 µM [12]: 12.8%
- inhibition of growth at 10 µM [13]: 15.7%
- IC50 [14]: > 100 µM
- inhibition of growth at 10 µM [15]: 3.61%
- inhibition of growth at 10 µM [16]: -3.36%
- inhibition of growth at 10 µM [17]: 5.92%

SMILES: O=C(CNc1c(Cl)cccc1Cl)Nc1ccc(-c2nc3ccccc3s2)cc1
- GI50 [18]: 5.58 µM
- LC50 [18]: > 100 µM
- TGI [18]: 69.3 µM
- inhibition of growth at 10 µM [1]: 52%
- inhibition of growth at 10 µM [2]: 15.2%
- GI50 [19]: 1.73 µM
- TGI [19]: 3.47 µM
- CC50 [19, 37]: 6.98 µM
- inhibition of growth at 10 µM [3]: 12.8%
- GI50 [20]: 1.29 µM
- LC50 (50% lethal concentration) [20]: 7.58 µM
- TGI [20]: 3.13 µM
- inhibition of growth at 10 µM [4]: 20.1%
- inhibition of growth at 10 µM [5]: 107%
- inhibition of growth at 10 µM [6]: 33.3%
- GI50 [21]: 0.0371 µM
- LC50 [21]: 39.8 µM
- TGI [21]: 2.49 µM
- GI50 [22]: 1.68 µM
- LC50 [22]: 9.74 µM
- TGI [22]: 4.05 µM
- GI50 [23]: 2.86 µM
- LC50 [23]: > 100 µM
- TGI [23]: 11.5 µM
- inhibition of growth at 10 µM [7]: -18.3%
- inhibition of growth at 10 µM [8]: 72.3%
- inhibition of growth at 10 µM [10]: 14.1%
- GI50 [24]: 8.29 µM
- LC50 [24]: 55.2 µM
- TGI [24]: 22.6 µM
- GI50 [25]: 2.64 µM
- LC50 [25]: > 100 µM
- TGI [25]: 8.9 µM
- GI50 [26]: 1.81 µM
- LC50 [26]: 5.79 µM
- TGI [26]: 3.24 µM
- inhibition of growth at 10 µM [11]: 29.3%
- inhibition of growth at 10 µM [12]: 26.3%
- GI50 [27]: 2.5 µM
- LC50 [27]: 80 µM
- TGI [27]: 9.28 µM
- GI50 [28]: 1.83 µM
- LC50 [28]: 6.34 µM
- TGI [28]: 3.41 µM
- GI50 [29]: 13.8 µM
- TGI [29]: 26.9 µM
- CC50 [29, 37]: 52.4 µM
- GI50 [30]: 15.3 µM
- LC50 (concentration causing 50% net cell kill) [30]: 60.5 µM
- TGI [30]: 30.4 µM
- inhibition of growth at 10 µM [13]: 89.3%
- GI50 [31]: 2.3 µM
- LC50 (concentration killing 50% of cells) [31]: 27.4 µM
- TGI [31]: 6.71 µM
- GI50 [32]: 1.58 µM
- TGI [32]: 4.5 µM
- CC50 [32, 37]: 53.7 µM
- inhibition of growth at 10 µM [15]: 2.62%
- inhibition of growth at 10 µM [17]: 94.4%
- GI50 [33]: 4.14 µM
- LC50 (lethal concentration, 50% cell kill) [33]: > 100 µM
- TGI [33]: 18.8 µM
- GI50 [34]: 2.02 µM
- LC50 [34]: > 100 µM
- TGI [34]: 5.32 µM
- GI50 [35]: 2.1 µM
- LC50 [35]: 8.79 µM
- TGI [35]: 4.29 µM
- GI50 [36]: 2.6 µM
- LC50 [36]: 99.6 µM
- TGI [36]: 11.3 µM
